Measurements reported in publication PMC4585938, “Ursolic acid exerts anti-cancer activity by suppressing vaccinia-related kinase 1-mediated damage repair in lung cancer cells” (Scientific Reports, 2015).

Target: vaccinia-related kinase 1 (VRK1) (Homo sapiens, UniProt Q99986)
Assay: biochemical
Format: binding

Chain of vaccinia-related kinase 1 (VRK1) (Q99986 whole entry): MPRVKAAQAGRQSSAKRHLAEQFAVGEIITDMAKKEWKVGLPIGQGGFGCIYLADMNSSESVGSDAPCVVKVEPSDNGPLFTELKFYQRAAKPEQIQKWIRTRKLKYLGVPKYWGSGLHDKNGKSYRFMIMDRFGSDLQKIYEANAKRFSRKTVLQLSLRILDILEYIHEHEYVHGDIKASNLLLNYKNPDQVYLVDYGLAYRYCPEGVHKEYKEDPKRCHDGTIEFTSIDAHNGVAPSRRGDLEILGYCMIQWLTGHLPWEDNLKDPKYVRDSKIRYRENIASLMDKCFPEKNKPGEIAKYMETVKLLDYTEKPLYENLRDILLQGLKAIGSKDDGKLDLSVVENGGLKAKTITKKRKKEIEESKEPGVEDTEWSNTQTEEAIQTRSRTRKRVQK

With `C[C@H]1[C@H](C)CC[C@]2(C(=O)O)CC[C@]3(C)C(=CC[C@@H]4[C@@]5(C)CC[C@H](O)C(C)(C)[C@@H]5CC[C@]43C)[C@H]12` [UA, (1S,2R,4aS,6aR,6aS,6bR,8aR,10S,12aR,14bS)-10-hydroxy-1,2,6a,6b,9,9,12a-heptamethyl-2,3,4,5,6,6a,7,8,8a,10,11,12,13,14b-tetradecahydro-1H-picene-4a-carboxylic acid] as the molecule, how does the Kd read?
Its Kd is 731 nM.
